Type in all cases: cell-based
The subject of assay [1] is 786-O. Description: Alternative cell assay (Cell Titer Glo cytotoxicity). Particulars: Homo sapiens, 786-0, 786-O cells, 48 hours. The protocol: (§1) Cells were plated in 150 μL growth media per well into black-sided clear-bottom 96-well plates (Costar, Corning) and allowed to settle for 1 hour in the biological cabinet before placing in the incubator at 37° C., 5% CO2. The following day, 4× concentration of drug stocks were prepared, and then titrated as 10-fold serial dilutions producing 8-point dose curves and added at 50 μl per well in duplicate. Cells were then incubated for 48 hours at 37° C., 5% CO2. Cytotoxicity was measure by incubating with 100 μL Cell Titer Glo (Promega) solution for 1 hour, and then luminescence was measured on a Fusion HT plate reader (Perkin Elmer). Data was processed with Excel (Microsoft) and GraphPad (Prism) to produce dose response curves and IC50 values were generated and data collected.
For orientation: Cellular ATP, detected with luciferase, serves as a proxy for viable cell number.

The test system of assay [2] is Caki-1. The description is as above. As to conditions: Homo sapiens, Caki-1 cells, 48 hours. As for the experimental part: as §1
For the next assay, the system named is HL-60. The assay is described as above. Particulars: Homo sapiens, HL-60 cells, 48 hours. As for the experimental part: as §1
Another assay deals with HEL. The assay is described as above. Particulars: Homo sapiens, HEL cells, 48 hours. The protocol:
as §1

The subject of assay [3] is MCF-7. The assay is described as above. As to conditions: Homo sapiens, MCF7, MCF-7 cells, 48 hours. The protocol:
as §1

A further assay deals with BxPC-3. Described as above. Particulars: Homo sapiens, BxPC-3 cells, 48 hours. The protocol:
as §1

The test system of assay [4] is 786-O. Kind of assay: Free drug in vitro cytotoxicity (resazurin). As to conditions: Homo sapiens, 786-0, 786-O cells, 96 hours. As for the experimental part:
(§2) Cells as detailed below were collected and plated in 96 well black-sided plates at a density of 10,000 cells/well in 150 μL of medium. Serial dilutions of the test article (50 μL) were added, and incubation was carried out for 92 hours at 37° C. After addition of test compound, cultures were incubated to 96 hours at 37° C. Resazurin (0.25 mM, 50 μL, Sigma, St. Louis, Mo.) in medium was added and incubation was continued for 4 h. The plates were read on a Fusion HT microplate reader (Packard, Meriden, Conn.) using an excitation wavelength of 525 nm and an emission wavelength of 590 nm. Data from all assays were reduced using GraphPad Prism Version 4 for Windows (GraphPad Software, San Diego, Calif.). The IC50 concentrations compared to untreated control cells were determined using a 4 parameter curve fits.

Assay [5] has as its system Caki-1. Description: Free drug in vitro cytotoxicity (resazurin). As to conditions: Homo sapiens, Caki-1 cells, 96 hours. The protocol:
as §2

For assay [6], the system named is MCF-7. Description: Free drug in vitro cytotoxicity (resazurin). Particulars: Homo sapiens, MCF7, MCF-7 cells, 96 hours. The protocol:
as §2
In general terms: The colour change of resazurin is a common sign of viable cells or microbes.

For a further assay, the system named is TF1a. Kind of assay: Free drug in vitro cytotoxicity (resazurin). Particulars: TF-1a, TF1a cells, 96 hours. As for the experimental part:
as §2

This passage reports IC50 results from patent US9732084B2, “Pyrrolobenzodiazepines used to treat proliferative diseases” (priority 2010, dated 2017).

As for `COc1cc2c(cc1OCCCOc1cc3c(cc1OC)C(=O)N1C=C(c4ccc(N)cc4)C[C@H]1C=N3)N=C[C@@H]1CC(C)=CN1C2=O` [Compound 11, (S)-2-(4-aminophenyl)-7-methoxy-8-(3-((S)-7-methoxy-2-methyl-5-oxo-5,11a-dihydro-1H-pyrrolo[2,1-c][1,4]benzodiazepine-8-yloxy)propoxy)-1H-pyrrolo[2,1-c][1,4]benzodiazepine-5(11aH)-one], the IC50 in the assay on 786-O [1] is 0.85 nM; in the assay with Caki-1 [2], 0.4 nM; with HL-60 it was 0.1 nM; in the assay with HEL it was 0.06 nM; with MCF-7 [3], 7 nM; with BxPC-3, 3 nM. The IC50 with 786-O [4] amounted to 0.1 nM; in the assay on Caki-1 [5] it was 0.06 nM; in the assay with MCF-7 [6], 0.2 nM; with TF1a, 0.07 nM.

The compound `CC=CC1=CN2C(=O)c3cc(OC)c(OCCCCCOc4cc5c(cc4OC)C(=O)N4C=C(c6cccc(N)c6)C[C@H]4C=N5)cc3N=C[C@@H]2C1` [Compound 15, (S)-2-(3-aminophenyl)-8-(5-((S)-2-propenyl-7-methoxy-5-oxo-5,11a-dihydro-1H-pyrrolo[2,1-c][1,4]benzodiazepine-8-yloxy)pentyloxy)-7-methoxy-1H-pyrrolo[2,1-c][1,4]benzodiazepine-5(11aH)-one] returned an IC50 in the assay with MCF-7 [6] of 0.03 nM.

For the compound `COc1cc2c(cc1OCCCOc1cc3c(cc1OC)C(=O)N1C=C(c4cccc(N)c4)C[C@H]1C=N3)N=C[C@@H]1CC(C)=CN1C2=O` [Compound 18, (S)-2-(3-aminophenyl)-7-methoxy-8-(3-((S)-7-methoxy-2-methyl-5-oxo-5,11a-dihydro-1H-pyrrolo[2,1-c][1,4]benzodiazepine-8-yloxy)propoxy)-1H-pyrrolo[2,1-c][1,4]benzodiazepine-5(11aH)-one], the IC50 with 786-O [4] was determined as 1 nM; in the assay with Caki-1 [5], 0.6 nM; in the assay on MCF-7 [6], 2 nM; in the assay on TF1a, 0.7 nM.

In general, IC50 refers to the concentration at which inhibition is half-maximal. Low readings indicate greater potency in that assay, high ones weaker potency in that assay.
